Numbered stars: 1 amine (or outer) side, 2 acyl side, 3 side chain; on linkers, the order of the positions; unused ones are H or OH. Square brackets hold non-standard residues; d marks the D form. Side chains are listed from the residue outwards. Peptide text beside a SMILES is read from it. * marks the point of attachment. Phe(4-CH2SO3H) = N[C@@H](Cc1ccc(CS(=O)(=O)O)cc1)C(=O)O; C18 diacid = O=C(O)CCCCCCCCCCCCCCCCC(=O)*; γGlu = O=C(O)[C@H](CCC(=O)[*:2])N[*:1]; βAsp = O=C(O)[C@H](CC(=O)[*:2])N[*:1]; NMeF = CN[C@@H](Cc1ccccc1)C(=O)O; NMeD = CN[C@@H](CC(=O)O)C(=O)O; dNMeD = CN[C@H](CC(=O)O)C(=O)O; Nle = CCCC[C@H](N)C(=O)O; X1 = O=C(Cc1ccc(O)cc1)*; AEEA = NCCOCCOCC(=O)O
Assays:
[1] = Drug level in Ellegaard Gottingen minipig plasma treated with C18d-gammaGlu-(OEG)2-Asp-Phe(4sm)-Nle-Gly-Trp-Nle-DMeAspMePhe-NH2 at 5 nmol/kg, iv administered as single dose by LC-MS/MS analysis; format: ADME, organism-based, Sus scrofa; conditions: pig, in vivo
[2] = molecular target: T1, Gastrin/cholecystokinin type B receptor (Homo sapiens, UniProt P32239); assay: Agonist activity at human CCK2R expressed in human 1321N1 cells assessed as IP1 accumulation after 1 hr by HTRF assay; format: functional, cell-based
T1 sequence (P32239 whole entry): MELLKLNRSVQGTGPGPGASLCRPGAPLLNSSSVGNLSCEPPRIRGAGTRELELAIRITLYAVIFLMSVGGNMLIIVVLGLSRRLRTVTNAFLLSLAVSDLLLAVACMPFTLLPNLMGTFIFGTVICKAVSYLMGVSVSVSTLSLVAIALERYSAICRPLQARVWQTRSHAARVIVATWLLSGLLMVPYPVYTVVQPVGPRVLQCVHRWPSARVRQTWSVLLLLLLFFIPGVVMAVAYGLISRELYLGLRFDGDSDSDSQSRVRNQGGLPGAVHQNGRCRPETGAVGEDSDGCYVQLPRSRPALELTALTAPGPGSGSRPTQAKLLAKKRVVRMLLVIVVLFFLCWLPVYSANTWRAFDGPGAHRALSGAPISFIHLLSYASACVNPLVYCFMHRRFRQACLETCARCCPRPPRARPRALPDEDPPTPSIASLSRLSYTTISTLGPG

[3] = molecular target: T2, Cholecystokinin receptor type A (Homo sapiens, UniProt P32238); assay: Agonist activity at human CCK1R expressed in human 1321N1 cells assessed as IP1 accumulation after 1 hr by HTRF assay; format: functional, cell-based
T2 sequence (P32238 whole entry): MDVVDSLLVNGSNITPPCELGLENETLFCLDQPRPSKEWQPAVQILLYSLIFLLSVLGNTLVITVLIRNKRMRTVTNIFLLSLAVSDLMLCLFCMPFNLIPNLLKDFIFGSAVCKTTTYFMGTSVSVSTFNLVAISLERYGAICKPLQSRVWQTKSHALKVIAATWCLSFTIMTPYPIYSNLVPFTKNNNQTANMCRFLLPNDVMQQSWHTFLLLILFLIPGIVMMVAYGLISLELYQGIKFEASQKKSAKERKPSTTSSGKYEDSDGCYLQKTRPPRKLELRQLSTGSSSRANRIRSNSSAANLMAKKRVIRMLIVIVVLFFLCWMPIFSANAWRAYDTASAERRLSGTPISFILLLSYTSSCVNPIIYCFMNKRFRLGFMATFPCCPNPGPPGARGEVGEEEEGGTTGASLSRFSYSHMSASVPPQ

[4] = Toxicity in lean Landrace Yorkshire Duroc pig at 30 nmol/kg, sc measured up to 96 hrs post dose; format: organism-based, Sus scrofa; conditions: in vivo
[5] = Plasma concentration in lean Landrace Yorkshire Duroc pig at 30 nmol/kg, sc measured after 96 hrs post dose; format: ADME, organism-based, Sus scrofa
[6] = Terminal half life in Ellegaard Gottingen minipig at 5 nmol/kg, iv by LC-MS/MS analysis; format: ADME, organism-based, Sus scrofa; conditions: pig, in vivo, read-out: beta t1/2 (converted)
[7] = molecular target: T1, Gastrin/cholecystokinin type B receptor; assay: Displacement of [125I]-CCK-8 from human CCK2R expressed in human 1321N1 cell membranes after 2 hrs by SPA assay
[8] = molecular target: T2, Cholecystokinin receptor type A; assay: Displacement of [125I]-CCK-8 from human CCK1R expressed in human 1321N1 cell membranes after 2 hrs by SPA assay
[9] = test system: Sus scrofa; assay: Anti-obesity activity in lean Landrace Yorkshire Duroc pig assessed as food intake at 30 nmol/kg, sc measured up to 24 hrs post dose (reference value: 1.8 to 2.1 kg); format: functional
[10] = test system: Sus scrofa; assay: Anti-obesity activity in lean Landrace Yorkshire Duroc pig assessed as food intake at 30 nmol/kg, sc measured at 48 to 72 hrs post dose (reference value: 1.8 to 2.1 kg); format: functional
[11] = test system: Sus scrofa; assay: Anti-obesity activity in lean Landrace Yorkshire Duroc pig assessed as food intake at 30 nmol/kg, sc measured at 72 to 96 hrs post dose (reference value: 1.8 to 2.1 kg); format: functional
[12] = test system: Sus scrofa; assay: Anti-obesity activity in lean Landrace Yorkshire Duroc pig assessed as food intake at 30 nmol/kg, sc measured at 24 to 48 hrs post dose (reference value: 1.8 to 2.1 kg); format: functional
[13] = Drug level in sodium phosphate buffer treated with 1 mM (2R,5S,8S,14S,17S,20S,43S)-8-((1H-indol-3-yl)methyl)-2-(((S)-1-amino-1-oxo-3-phenylpropan-2-yl)(methyl)carbamoyl)-5,14-dibutyl-20-(carboxymethyl)-3-methyl-4,7,10,13,16,19,22,31,40,45-decaoxo-17-(4-(sulfomethyl)benzyl)-24,27,33,36-tetraoxa-3,6,9,12,15,18,21,30,39,44-decaazahenhexacontane-1,43,61-tricarboxylic acid assessed as compound formation at pH 7.4 at 37 degC after 1 to 2 weeks by UHLPC-UV analysis; format: physicochemical

SMILES	Drug uptake [1]	pEC50 [2]	pEC50 [3]	concentration at 96 h [5] [nM]	half-life [6] [h]	pIC50 [7]	pIC50 [8]	EC50 [3] [nM]	Drug uptake [13]	IC50 [8] [nM]	Activity [4]	Activity [9] [kg]	Activity [10] [kg]	Activity [11] [kg]	Activity [12] [kg]
CCCC[C@H](NC(=O)[C@H](Cc1c[nH]c2ccccc12)NC(=O)CNC(=O)[C@H](CC(C)C)NC(=O)[C@H](Cc1ccc(O)cc1)NC(=O)[C@H](CC(=O)O)NC(=O)COCCOCCNC(=O)COCCOCCNC(=O)CC[C@H](NC(=O)CCCCCCCCCCCCCCCCC(=O)O)C(=O)O)C(=O)N(C)[C@@H](CC(=O)O)C(=O)N(C)[C@@H](Cc1ccccc1)C(N)=O [listing 1 of 2 here]	–	< 6	9.81	8.5	45	5.31	8.99	–	–	–	Non-Toxic	–	–	–	–
CCCC[C@H](NC(=O)[C@H](Cc1c[nH]c2ccccc12)NC(=O)CNC(=O)[C@H](CC(C)C)NC(=O)[C@H](Cc1ccc(O)cc1)NC(=O)[C@H](CC(=O)O)NC(=O)COCCOCCNC(=O)COCCOCCNC(=O)CC[C@H](NC(=O)CCCCCCCCCCCCCCCCC(=O)O)C(=O)O)C(=O)N(C)[C@@H](CC(=O)O)C(=O)N(C)[C@@H](Cc1ccccc1)C(N)=O [listing 2 of 2 here]	–	–	–	–	–	–	–	–	–	–	–	2.3	2.6	2.3	2.2
CCCC[C@H](NC(=O)[C@H](Cc1c[nH]c2ccccc12)NC(=O)CNC(=O)[C@H](CCCCNC(=O)COCCOCCNC(=O)COCCOCCNC(=O)CC[C@H](NC(=O)CCCCCCCCCCCCCCCCC(=O)O)C(=O)O)NC(=O)Cc1ccc(O)cc1)C(=O)N(C)[C@@H](CC(=O)O)C(=O)N(C)[C@@H](Cc1ccccc1)C(N)=O (X1-K([AEEA-AEEA-γGlu-C18 diacid])GW[Nle][NMeD][NMeF]-NH2) [listing 2 of 2 here]	–	–	–	–	–	–	–	–	–	–	–	2.1	2.1	2.4	2.2

The next lines start with results.

Drug uptake [1]	pEC50 [2]	pEC50 [3]	concentration at 96 h [5] [nM]	half-life [6] [h]	pIC50 [7]	pIC50 [8]	EC50 [3] [nM]	Drug uptake [13]	IC50 [8] [nM]	SMILES	Activity [4]	Activity [9] [kg]	Activity [10] [kg]	Activity [11] [kg]	Activity [12] [kg]
Active	–	–	–	–	–	–	–	–	–	O=C(O)CCCCCCCCCCCCCCCCC(=O)N[C@@H](CCC(=O)NCCOCCOCC(=O)NCCOCCOCC(=O)N[C@@H](CC(=O)O)C(=O)N[C@@H](Cc1ccc(CS(=O)(=O)O)cc1)C(=O)O)C(=O)O	–	–	–	–	–
–	< 6	9.8	< 0.9	7.1	5.43	9.28	–	–	–	CCCC[C@H](NC(=O)[C@H](Cc1c[nH]c2ccccc12)NC(=O)CNC(=O)[C@H](CCCCNC(=O)COCCOCCNC(=O)COCCOCCNC(=O)CC[C@H](NC(=O)CCCCCCCCCCCCCCCCC(=O)O)C(=O)O)NC(=O)Cc1ccc(O)cc1)C(=O)N(C)[C@@H](CC(=O)O)C(=O)N(C)[C@@H](Cc1ccccc1)C(N)=O (X1-K([AEEA-AEEA-γGlu-C18 diacid])GW[Nle][NMeD][NMeF]-NH2) [listing 1 of 2 here]	Non-Toxic	–	–	–	–
–	–	–	88.7	106	–	–	0.316	Active	0.0794	CCCC[C@H](NC(=O)[C@H](Cc1ccc(CS(=O)(=O)O)cc1)NC(=O)C[C@H](NC(=O)COCCOCCNC(=O)COCCOCCNC(=O)CC[C@H](NC(=O)CCCCCCCCCCCCCCCCC(=O)O)C(=O)O)C(=O)O)C(=O)NCC(=O)N[C@@H](Cc1c[nH]c2ccccc12)C(=O)N[C@@H](CCCC)C(=O)N(C)[C@H](CC(=O)O)C(=O)N(C)[C@@H](Cc1ccccc1)C(N)=O ({C18 diacid-γGlu-AEEA-AEEA-βAsp}-[Phe(4-CH2SO3H)][Nle]GW[Nle][dNMeD][NMeF]-NH2)	Non-Toxic	1.1	1.8	1.7	1.5

Reference: ChEMBL document CHEMBL4368907 (J Med Chem, 2019)
